From patent US6291676A, “Water-soluble derivatives of camptothecin/homocamptothecin” (priority 2000, dated 2001)

Key:
[1] = HPLC lactone stability in presence of DMPC SUV; type: physicochemical; settings: for less lactone compared to the prior art monoamine (7AEC): DMPC
Method: (§1) To further study the differential interactions of CT-17 versus 7AEC with liposomal particles, high performance liquid chromatographic (HPLC) methods were employed to study drug stabilities in the absence and presence of membranes. In these experiments, small unilamellar vesicles (SUV) composed of dimyristoyl phosphatidylcholine (DMPC) were prepared by weighing out dry lipid powder (Avanti Polar Lipids) in a glass tube with screw cap top. The lipid was suspended in phosphate buffered saline, pH 7.4, at the concentration of 20 mg/ml and vortexed vigorously for 1 minute. The suspension was sonicated in a bath-type sonicator (Laboratory Supplies Co., Hicksville, N.Y.) for 2-4 hours until optically clear solution is obtained. […] A decrease in pH from 7.4 to 7.2 was observed. The pH of the SUV preparation was adjusted to 7.4 by the addition of 0.1 M potassium hydroxide. The sample was resonicated after pH adjustment until optically clear. Small unilamellar vesicles composed of dimyristoyl phosphatidylglycerol (DMPG) were also prepared by weighing out dry powder of the lipid (Avanti Polar Lipids) in a glass tube with screw-cap top and prepared as in the case of DMPC. The pH of the preparation decreased from 7.4 to 6.9 and was adjusted to 7.4 by the addition of 0.1 M KOH. The preparation was resonicated for 30 minutes until optically clear.
(§2) Stock solutions of 7-(1-Aminoethyl)camptothecin, a monoamine compound known in the prior art, and CT-17 as prepared in Example 18 were prepared by weighing out dry powder and dissolving in dimethylsulfoxide (DMSO) at a concentration of 2 mM. The SUV preparations from above were incubated at 37° C. in a water bath for 30 minutes. The two camptothecin drugs were added to the SUV preparations such that the final drug concentrations were 1 μM. The samples were incubated at 37° C. and aliquots were withdrawn at 1 hour and 3 hours and added to cold methanol (-20° C.) and immediately analyzed by reversed-phase HPLC using the conditions as follows. Analysis was performed using either Waters Alliance 2690 LC system equipped with temperature controlled autosampler or Waters LC system equipped with temperature controlled 717 plus Autosampler and 501 pumps. The detection was using either Waters 470 or 474 fluorescence detectors. Solvent A was 2% triethylammonium acetate, pH 5.5 and Solvent B was acetonitrile. The column used was Waters Symmetry C18, 5 μm (3.9×150 mm). The autosampler temperature was maintained at 4-5° C. The conditions used for analysis of 7-(1-Aminoethyl)camptothecin: Isocratic elution using 15% of solvent A and 85% of solvent B; detection using λcx =370 and λcm =440. […] The HPLC data was collected and analyzed using Waters Millenium chromatography manager.

[2] = Stability of the lactone form of CT-17 free and in liposomes in PBS, plasma, whole blood; type: physicochemical, human
Method: To determine the ability of CT-17 to be retained in liposomal preparations,the agent was loaded into liposomes using the active loading methodology as described previously (U.S. Pat. No. 5,192,549). Two types of liposomes were used: 1) non-stealth liposomes and 2) stealth liposomes. The liposome preparations were then incubated in various biological fluids to determine drug retention in the particle. In these experiments the lipid distearoylphosphatidylcholine (DSPC) was obtained from Avanti Polar Lipids (Birmingham, AL) and cholesterol was from Nutritional Biochemicals Corp., Cleveland, Ohio. […] Solvent was evaporated at 55-60° C. on rotary evaporator for 15 min to form the lipid film. The residual solvent was then removed under high vacuum at room temperature overnight. The lipid film was hydrated using 5 ml of 0.1 M ammonium sulfate. MLVs were formed by shaking and occasional vortexing at 55-60° C. LUVs were formed by passing the liposomal suspension through two 100 nm stacked polycarbonate filters under 20 psi pressure of nitrogen using 11 passes at 55-60° C. (Liposo-Fast-Pneumatic from AVESTIN, Toronto, Canada).
FIG. 7 is a graphical comparison of the stability of the lactone form of the camptothecin drug CT-17 as a function of time. […]

[3] = HPLC lactone stability in presence of DMPG SUV; type: physicochemical; settings: for less lactone compared to the prior art monoamine (7AEC): DMPG
Method: as §1, §2

CC[C@@]1(O)C(=O)OCc2c1cc1n(c2=O)Cc2c-1nc1ccccc1c2CNN1CCN(C)CC1 [CT-17, 7-[N-(4-methyl-1-piperazino)aminomethyl]-(20S)-camptothecin]
remaining at 1 h, 1 µM ([1]; DMPC SUV, PBS pH 7.4, 37° C, 1 hr, 1 μM drug, read-out: Percentage of Lactone, DMPC, 1 Hr): 34 ± 3%
remaining at 3 h, 1 µM ([1]; DMPC SUV, PBS pH 7.4, 37° C, 3 hr, 1 μM drug, read-out: Percentage of Lactone, DMPC, 3 Hr): 19 ± 3%
less lactone compared to the prior art monoamine (7AEC) ([1]; 1 hr): 20%
less lactone compared to the prior art monoamine (7AEC) ([1]; 3 hr): 17%
hydrolysis of free drug to inactive carboxylate [2]: high rate and extensive amount of hydrolysis
remaining at 1 h, 1 µM ([3]; DMPG SUV, PBS pH 7.4, 37° C, 1 hr, 1 μM drug, read-out: Percentage of Lactone, DMPG, 1 Hr): 87 ± 2%
remaining at 3 h, 1 µM ([3]; DMPG SUV, PBS pH 7.4, 37° C, 3 hr, 1 μM drug, read-out: Percentage of Lactone, DMPG, 3 Hr): 78 ± 3%
less lactone compared to the prior art monoamine (7AEC) ([3]; 1 hr): 6%
less lactone compared to the prior art monoamine (7AEC) ([3]; 3 hr): 8%
